From patent publication US20200377496A1, “INDOLE AND BENZIMIDAZOLE DERIVATIVES AS DUAL 5-HT2A and 5-HT6 RECEPTOR ANTAGONISTS” (ADAMED PHARMA, S.A., priority 2018, published 2020)
Where two headings read alike, the source gives them in different places.

How the values were obtained:
5-HT6 receptors [1] = target: T1, 5-HT6 receptors (Homo sapiens, UniProt P50406); conditions: cited from earlier work
human 5-HT2A receptor = human 5-HT2A receptor (Homo sapiens, UniProt P28223); assay: 5-HT2A receptor binding assay ([3H]-ketanserin radioligand)
Sequence of human 5-HT2A receptor (P28223 whole entry): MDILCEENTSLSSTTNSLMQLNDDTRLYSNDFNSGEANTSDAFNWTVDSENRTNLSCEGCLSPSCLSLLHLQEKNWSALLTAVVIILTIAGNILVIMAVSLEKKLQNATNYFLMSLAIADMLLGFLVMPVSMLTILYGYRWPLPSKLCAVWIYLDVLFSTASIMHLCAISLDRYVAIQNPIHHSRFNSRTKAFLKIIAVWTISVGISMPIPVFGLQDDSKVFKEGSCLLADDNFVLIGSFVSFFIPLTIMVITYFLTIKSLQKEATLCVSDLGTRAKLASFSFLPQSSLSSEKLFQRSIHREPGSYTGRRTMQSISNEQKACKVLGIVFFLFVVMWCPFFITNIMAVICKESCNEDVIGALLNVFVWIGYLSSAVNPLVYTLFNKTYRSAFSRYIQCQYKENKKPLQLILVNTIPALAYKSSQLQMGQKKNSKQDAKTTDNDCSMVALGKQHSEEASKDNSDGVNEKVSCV
Description: (§1) Preparation of Solutions of Test and Reference Compounds.
(§2) 1 mM stock solutions of tested compounds were prepared in DMSO. Serial dilutions of compounds were prepared in 96-well microplate in assay buffers using automated pipetting system epMotion 5070 (Eppendorf). Each compound was tested in 10 concentrations from 1.0E-6 to 1.0E-11 M (final concentration).
5-HT2A Receptor Binding Assay.
Radioligand binding was performed using membranes from CHO K1 cells stably transfected with the human 5-HT2A receptor (PerkinElmer). All assays were carried out in duplicates. 50 μl working solution of the tested compounds, 50 μl [3H]-ketanserin (final concentration 1 nM) and 150 μl diluted membranes (7 μg protein per well) prepared in assay buffer (50 mM Tris, pH 7.4, 4 mM CaCl2, 0.1% ascorbic acid) were transferred to polypropylene 96-well microplate using 96-wells pipetting station Rainin Liquidator (MettlerToledo). Mianserin (10 μM) was used to define nonspecific binding. Microplate was covered with a sealing tape, mixed and incubated for 60 minutes at 27° C. The reaction was terminated by rapid filtration through GF/B filter mate presoaked with 0.5% polyethyleneimine for 30 minutes. Ten rapid washes with 200 μl 50 mM Tris buffer (4° C., pH 7.4) were performed using automated harvester system Harvester-96 MACH III FM (Tomtec). The filter mates were dried at 37° C. in forced air fan incubator and then solid scintilator MeltiLex was melted on filter mates at 90° C. for 5 minutes. Radioactivity was counted in MicroBeta2 scintillation counter (PerkinElmer). Data were fitted to a one-site curve-fitting equation with Prism 6 (GraphPad Software) and Ki values were estimated from the Cheng-Prusoff equation.

human GPCR 5-HT2A = human GPCR 5-HT2A (Homo sapiens, UniProt P28223); assay: Cellular aequorin-based functional assay, 5-HT2A; assay type: cell-based; conditions: for 5-HT2A AGO EC50 [nM]: agonist mode, CHO-K1 aequorin cells
Sequence of human GPCR 5-HT2A (P28223 whole entry): as above
Description: as §1
(§3) 1 mM stock solutions of the tested compounds were prepared in DMSO. Serial dilutions were prepared in 96-well microplate in assay buffers using automated pipetting system epMotion 5070 (Eppendorf). Two independent experiments in duplicates were performed and 6 to 10 concentrations were tested.
(§4) 5-HT2A and 5-HT6 Functional Activity Assays.
(§5) Cellular aequorin-based functional assays were performed with γ-irradiated recombinant CHO-K1 cells expressing mitochondrially-targeted Aequorin, human GPCR (5-HT2A or 5-HT6) and the promiscuous G protein α16 (PerkinElemer). Assays were performed according to the standard protocol provided by the manufacturer. After thawing, cells were transferred to assay buffer (DMEM/HAM's F12 with 0.1% protease-free BSA) and centrifuged. Cell pellet was resuspended in assay buffer and coelenterazine h was added at final concentrations of 5 μM. Cell suspension was incubated at 21° C., protected from light with constant agitation, for 4 hours and then diluted with assay buffer to a concentration of 250,000 cells/ml. After 1 hour incubation 50 yl cell suspension was dispensed using automatic injectors built in radiometric and luminescence plate counter MicroBeta2 LumiJET (PerkinElmer, USA) into white opaque 96-well microplate preloaded with tested compounds. Immediate light emission generated following calcium mobilization was recorded for 30-60 seconds. In antagonist mode, after 15-30 minutes incubation reference agonist was added to the above assay mix and light emission was recorded again. Final concentration of reference agonist was equal EC80: serotonin 40 nM for 5-HT6 receptor and α-methylserotonin 30 nM for 5-HT2A receptor. The assays were performed in the agonist mode (5-HT6 AGO and 5-HT2A AGO) as well as antagonist mode (5-HT6 ANT and 5-HT2A ANT).
(§6) IC50 and EC50 were determined by non-linear regression analysis using GraphPad Prism 6.0 software. The log IC50 was used to obtain the Kb by applying the Cheng-Prusoff approximation.

5-HT6 receptors [2] = target: T1, 5-HT6 receptors; assay: 5-HT6 receptor binding assay ([3H]-LSD radioligand); conditions: membranes from CHO-K1 cells with human 5-HT6 receptor, [3H]-LSD 1 nM
Description: as §1, §2
5-HT6 Receptor Binding Assay.
Radioligand binding was performed using membranes from CHO-K1 cells stably transfected with the human 5-HT6 receptor (PerkinElmer). All assays were carried out in duplicates. 50 μl working solution of the tested compounds, 50 μl [3H]-LSD (final concentration 1 nM) and 150 μl diluted membranes (8 μg protein per well) prepared in assay buffer (50 mM Tris, pH 7.4, 10 mM MgCl2, 0.1 mM EDTA) were transferred to polypropylene 96 well microplate using 96-wells pipetting station Rainin Liquidator (MettlerToledo). Methiothepin (10 μM) was used to define nonspecific binding. Microplate was covered with a sealing tape, mixed and incubated for 60 minutes at 37° C. The reaction was terminated by rapid filtration through GF/A filter mate presoaked with 0.5% polyethyleneimine for 30 minutes. Ten rapid washes with 200 μl 50 mM Tris buffer (4° C., pH 7.4) were performed using automated harvester system Harvester-96 MACH III FM (Tomtec). The filter mates were dried at 37° C. in forced air fan incubator and then solid scintilator MeltiLex was melted on filter mates at 90° C. for 5 minutes. Radioactivity was counted in MicroBeta2 scintillation counter (PerkinElmer). Data were fitted to a one-site curve-fitting equation with Prism 6 (GraphPad Software) and Ki values were estimated from the Cheng-Prusoff equation.

human GPCR 5-HT6 = human GPCR 5-HT6 (Homo sapiens, UniProt P50406); assay: Cellular aequorin-based functional assay, 5-HT6; assay type: cell-based; conditions: for 5-HT6 AGO EC50 [nM]: agonist mode, CHO-K1 aequorin cells; for Kb: antagonist mode, reference agonist serotonin 40 nM (EC80), read-out: 5-HT6 ANT Kb
Sequence of human GPCR 5-HT6 (P50406 whole entry): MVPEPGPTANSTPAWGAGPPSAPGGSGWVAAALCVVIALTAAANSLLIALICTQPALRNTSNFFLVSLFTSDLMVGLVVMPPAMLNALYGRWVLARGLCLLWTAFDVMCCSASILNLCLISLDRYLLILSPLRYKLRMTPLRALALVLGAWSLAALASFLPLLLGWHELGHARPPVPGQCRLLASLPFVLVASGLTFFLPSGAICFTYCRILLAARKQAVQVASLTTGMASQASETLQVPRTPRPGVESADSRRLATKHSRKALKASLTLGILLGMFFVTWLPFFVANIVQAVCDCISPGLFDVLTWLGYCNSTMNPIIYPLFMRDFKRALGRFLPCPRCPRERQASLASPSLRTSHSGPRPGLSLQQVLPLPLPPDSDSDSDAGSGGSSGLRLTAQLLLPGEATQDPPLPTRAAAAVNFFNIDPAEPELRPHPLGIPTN
Description: as §1, §3, §4, §5, §6

[3] = membranes from CHO K1 cells with human 5-HT2A receptor, [3H]-ketanserin 1 nM, read-out: 5-HT2A Ki
[4] = antagonist mode, reference agonist α-methylserotonin 30 nM (EC80), read-out: 5-HT2A ANT Kb

T1 sequence (P50406 whole entry): as above

**Q.** With CC(C)COc1ccc(CNC(=O)N(Cc2ccc(F)cc2)C2CCN(C)CC2)cc1 [pimavanserin] as the compound, how does the “affinity for the 5-HT6 receptors” value (5-HT6 receptors [1]) read?
**A.** no affinity

**Q.** For Cc1ccc(Cn2c(C(F)(F)F)cc3c(N4CCNCC4)cccc32)o1 [Compound 28, 1-[(5-methylfuran-2-yl)methyl]-4-(piperazin-1-yl)-2-(trifluoromethyl)-1H-indole], which Ki (human 5-HT2A receptor) is on record?
**A.** 0.48 nM

**Q.** What about the Kb (human GPCR 5-HT2A) of the same compound?
**A.** 16 nM

**Q.** What about the “5-HT2A AGO EC50 [nM]” value (human GPCR 5-HT2A) of the same compound?
**A.** N.C.

**Q.** What about the Ki (5-HT6 receptors [2]) of the same compound?
**A.** 4 nM

**Q.** What about the “5-HT6 AGO EC50 [nM]” value (human GPCR 5-HT6) of the same compound?
**A.** N.C.

**Q.** And the Kb (human GPCR 5-HT6)?
**A.** 0.25 nM

**Q.** What does the source list for FC(F)(F)c1cc2c(N3CCNCC3)cccc2n1Cc1ccsc1 [Compound 31, 4-(piperazin-1-yl)-1-(thiophen-3-ylmethyl)-2-(trifluoromethyl)-1H-indole]?
**A.** Ki (human 5-HT2A receptor): 1.5 nM; Kb (human GPCR 5-HT2A): 16 nM; 5-HT2A AGO EC50 [nM] (human GPCR 5-HT2A): N.C.; Ki (5-HT6 receptors [2]): 0.11 nM; 5-HT6 AGO EC50 [nM] (human GPCR 5-HT6): N.C.; Kb (human GPCR 5-HT6): 0.2 nM

**Q.** With CN1CCN(c2cccc3c2cc(C(F)(F)F)n3Cc2ccc(Cl)c(F)c2)CC1 [Compound 14, 1-(4-chloro-3-fluorobenzyl)-4-(4-methylpiperazin-1-yl)-2-(trifluoromethyl)-1H-indole] as the compound, how does the Ki (human 5-HT2A receptor; [3]) read?
**A.** 0.39 nM

**Q.** And the “5-HT2A AGO EC50 [nM]” value (human GPCR 5-HT2A)?
**A.** N.C.

**Q.** And the Kb (human GPCR 5-HT2A; [4])?
**A.** 59 nM

**Q.** What about the Ki (5-HT6 receptors [2]) of the same compound?
**A.** 0.65 nM

**Q.** What about the “5-HT6 AGO EC50 [nM]” value (human GPCR 5-HT6) of the same compound?
**A.** N.C.

**Q.** What about the Kb (human GPCR 5-HT6) of the same compound?
**A.** 5.5 nM

**Q.** Which Ki (human 5-HT2A receptor; [3]) does the source give for CN1CCN(c2cccc3c2cc(C(F)(F)F)n3Cc2ccsc2)CC1 [Compound 32, 4-(4-methylpiperazin-1-yl)-1-(thiophen-3-ylmethyl)-2-(trifluoromethyl)-1H-indole] here?
**A.** 2.3 nM

**Q.** And the “5-HT2A AGO EC50 [nM]” value (human GPCR 5-HT2A)?
**A.** N.C.

**Q.** And the Kb (human GPCR 5-HT2A; [4])?
**A.** 11 nM

**Q.** What about the Ki (5-HT6 receptors [2]) of the same compound?
**A.** 0.061 nM

**Q.** What about the “5-HT6 AGO EC50 [nM]” value (human GPCR 5-HT6) of the same compound?
**A.** N.C.

**Q.** What about the Kb (human GPCR 5-HT6) of the same compound?
**A.** 0.37 nM

**Q.** What does the source list for Fc1cccc(Cn2c(C(F)(F)F)nc3c(N4CCNCC4)cccc32)c1 [Compound 7, 1-(3-fluorobenzyl)-4-(piperazin-1-yl)-2-(trifluoromethyl)-1H-benzimidazole]?
**A.** Ki (human 5-HT2A receptor; [3]): 2.9 nM; 5-HT2A AGO EC50 [nM] (human GPCR 5-HT2A): N.C.; Kb (human GPCR 5-HT2A; [4]): 22 nM; Ki (5-HT6 receptors [2]): 1.6 nM; 5-HT6 AGO EC50 [nM] (human GPCR 5-HT6): N.C.; Kb (human GPCR 5-HT6): 1.9 nM
